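Results reflect a 48-hour exposure of cells in 96-well plates to compound at five concentrations. GI50: concentration for 50% inhibition of growth. TGI denotes the concentration required for complete inhibition of growth.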

This is an account of results in PubChem BioAssay (NCI).

Test systems include U251 CNS; UO-31 renal; KM12 colon; SNB-19 CNS; HOP-62 NSCLC; TK-10 renal; SN12C renal; NCI-H23 lung; CCRF-CEM leukemia; NCI-H522 lung.
Holding throughout (experiment): NCI tumour cell line growth inhibition, 48 h

Consider `C=C1C(=O)O[C@H]2[C@H]1CC/C(COC(=O)CCCCCCCCC(=O)OC/C1=C/CC[C@@]3(C)O[C@H]3[C@H]3OC(=O)C(=C)[C@@H]3CC1)=C\CC[C@@]1(C)O[C@@H]21`, for which the GI50 with U251 CNS was 1.96 µM; in the test with UO-31 renal, 1.47 µM; with KM12 colon, 2.13 µM; with SNB-19 CNS, 2.45 µM; in the test with HOP-62 NSCLC it was 2.03 µM; with TK-10 renal it was 2.47 µM. For the same molecule, the GI50 in the test on SN12C renal is 2.26 µM; in the test with NCI-H23 lung, 2 µM; in the test on CCRF-CEM leukemia it was 2.02 µM; in the test with NCI-H522 lung it was 2.12 µM. In addition, the TGI in the test on U251 CNS came to 3.82 µM; in the test with UO-31 renal it was 2.95 µM; in the test on KM12 colon, 4.68 µM; with SNB-19 CNS, 6.51 µM; with HOP-62 NSCLC, 4.65 µM; with TK-10 renal it was 4.74 µM. Besides, the TGI in the test on SN12C renal turned out to be 5.32 µM; in the test with NCI-H23 lung it was 4.25 µM; in the test on CCRF-CEM leukemia, 11.8 µM; in the test on NCI-H522 lung, 4.04 µM.
On to `S=c1nc2[nH]ncc2c(N/N=C/c2ccccc2)[nH]1`, for which the GI50 with U251 CNS is 93.8 µM; in the test with UO-31 renal, over 100 µM; in the test with KM12 colon, over 100 µM; in the test on SNB-19 CNS, over 100 µM; in the test on HOP-62 NSCLC, over 100 µM; with TK-10 renal, over 100 µM. Moreover, the GI50 with SN12C renal was over 100 µM; in the test on NCI-H23 lung it was over 100 µM; in the test on CCRF-CEM leukemia, 78.6 µM; in the test with NCI-H522 lung it was over 100 µM. Moreover, the TGI in the test with U251 CNS, in the test with UO-31 renal, with KM12 colon, with SNB-19 CNS, in the test on HOP-62 NSCLC and in the test with TK-10 renal was over 100 µM throughout. In addition, the TGI with SN12C renal, in the test on NCI-H23 lung, in the test with CCRF-CEM leukemia and in the test with NCI-H522 lung was over 100 µM throughout.
Turning to `COc1ccc(CNC2=C(NC(C)=O)C(=O)c3ccccc3C2=O)cc1`, the TGI in the test on U251 CNS is 47.5 µM; with UO-31 renal, 40.2 µM; in the test on KM12 colon, over 50 µM; in the test with SNB-19 CNS, over 50 µM; with HOP-62 NSCLC, over 50 µM; in the test with TK-10 renal, 18.1 µM. For the same molecule, the TGI is over 50 µM with SN12C renal, 14.7 µM in the test with NCI-H23 lung, 24.7 µM in the test with CCRF-CEM leukemia and 5.17 µM with NCI-H522 lung.
`ClC1CCC2OOC1O2` (stereo not given): the TGI in the test with U251 CNS, with UO-31 renal, in the test on KM12 colon, in the test with SNB-19 CNS, with HOP-62 NSCLC and with TK-10 renal was over 100 µM in each case. The TGI in the test on SN12C renal, in the test on NCI-H23 lung, in the test on CCRF-CEM leukemia and in the test on NCI-H522 lung was over 100 µM in each case.
As to `COC1C=CC(C(=O)[N+]2=Cc3[nH]c4ccccc4c3CC2)O1` (stereo not given), the TGI in the test on U251 CNS, in the test with UO-31 renal, in the test on KM12 colon, in the test with SNB-19 CNS, with HOP-62 NSCLC and with TK-10 renal was over 100 µM each time. For the same molecule, the TGI in the test with SN12C renal is over 100 µM; with NCI-H23 lung, over 100 µM; in the test on CCRF-CEM leukemia, 76.6 µM; with NCI-H522 lung, over 100 µM.
